Data reported in PMC10455244, “Alpha-Mangostin: A Potent Inhibitor of TRPV3 and Pro-Inflammatory Cytokine Secretion in Keratinocytes” (International Journal of Molecular Sciences, 2023).

Tests used:
[1] = system: IL-8; test: ELISA, carvacrol-induced IL-8 release in NHEK; type: cell-based, human; settings: 1 µM with 300 µM carvacrol, 24 h
Source text: Constitutive activation of TRPV3 due to continuous stimulation or the presence of Olmsted mutations causes noticeable skin inflammation due to the increased secretion of pro-inflammatory cytokines from the keratinocytes. Besides, in atopic dermatitis (AD), cytokine release from keratinocytes contributes to the inflammatory environment, which drives many characteristic AD symptoms. Therefore, we determined the effect of TRPV3 activation on cytokine release instead of TRPV3 expression and evaluated whether alpha-mangostin suppressed TRPV3-mediated cytokine secretion in normal human keratinocytes. The levels of secreted cytokines (interleukin (IL)-6, IL-8, and tumor necrosis factor-alpha (TNF-α)) were measured using enzyme-linked Immunosorbent assay (ELISA) kits due to their high sensitivity and quantitation ability. The cells were induced with 300 µM carvacrol, with or without 1 µM alpha-mangostin, and 10 µM 74a.
Figure 5 Alpha-mangostin (α-MG) inhibited carvacrol-induced cytokine release in NHEK cells and rescued carvacrol-induced cell death. (A) Alpha-mangostin inhibited the carvacrol-induced release of IL-8 and IL-6 in NHEK. Cells were induced by 300 µM carvacrol with or without either 1 µM alpha-mangostin or 10 µM 74a for 24 h before the ELISA assay. (B) Alpha-mangostin reduced cell death caused by carvacrol in human keratinocytes. […]

[2] = system: human keratinocytes; type: cell-based; settings: 0.3 µM with 500 µM carvacrol, 24 h
Method: Figure 5 Alpha-mangostin (α-MG) inhibited carvacrol-induced cytokine release in NHEK cells and rescued carvacrol-induced cell death. (A) Alpha-mangostin inhibited the carvacrol-induced release of IL-8 and IL-6 in NHEK. Cells were induced by 300 µM carvacrol with or without either 1 µM alpha-mangostin or 10 µM 74a for 24 h before the ELISA assay. (B) Alpha-mangostin reduced cell death caused by carvacrol in human keratinocytes. Cells were induced by 500 µM carvacrol with or without either 0.3 µM alpha-mangostin or 10 µM 74a for 24 h. The optical density (O.D.) values were normalized to those of the untreated cells. Data are shown as means ± SEM. **** p < 0.0001.
Strong activation of TRPV3 in keratinocytes by carvacrol at concentrations higher than 300 µM was reported to cause cell death. Therefore, we examined the effect of alpha-mangostin in keratinocytes exposed to 500 µM carvacrol.
The cell counting kit-8 (CCK8; Dojindo Laboratories, Kumamoto, Japan) was employed for viability assay. Keratinocytes (10^4 cells/well) plated in 96-well plates were incubated for about one day before exposing them to alpha-mangostin for 24 h. […] The optical density (O.D., 450 nm) of each well was measured after incubating the cells with CCK-8 solution ([…]) for 2 h. […]

In the case of COc1c(O)cc2oc3cc(O)c(CC=C(C)C)c(O)c3c(=O)c2c1CC=C(C)C [Alpha-mangostin], the “Effect on IL-8 levels” value [1] is reported as “drastically attenuated” and the “Effect on carvacrol-induced decrease of cell viability” value [2] is reported as “significantly reversed”.
